# Test results reported in patent publication US10981879B2, “Thioether triazolopyridine and triazolopyrimidine inhibitors of myeloperoxidase” (BRISTOL-MYERS SQUIBB COMPANY, priority 2014, dated 2021).
# Target: myeloperoxidase (MPO) (Homo sapiens (Human), UniProt P05164)
# Assay: MPO chlorination assay (APF)
# Assay type: biochemical
# Conditions: not given
# Experimental: MPO chlorination activity was measured in 100 mM KPi (pH 7.4) by utilizing the non-fluorescent reagent Aminophenyl fluorescein (APF, Invitrogen catalog #A36003). APF is cleaved by (—OCl) to yield the fluorescent compound fluorescein. Reactions were carried out in 50 μL total volume by adding a 25 μL mixture of 200 pM myeloperoxidase and 120 mM NaCl to 100 nL inhibitor in 100% DMSO in a 384 well, non-binding surface clear bottom plate (CORNING® #3655). Enzyme, inhibitor, and chloride were preincubated for ten minutes at rt.
# After the ten minute preincubation, 25 μL of an APF mixture containing […], 120 mM NaCl and 10 μM H2O2 was added to the plate using the internal dispensing system of a Hammatsu FDSS 6000. Kinetic determinations were carried out immediately on the FDSS 6000 (3 minute kinetic read, 1 read every second, ex: 485 nm, em: 535 nm). IC50 values for inhibitors were calculated by taking the slope of the linear portion of the kinetic measurement (20 seconds to ˜80-120 secs). […]
# [formula] where A=minimal Y value (activity level of inhibited sample), B=maximal Y value (activity level of uninhibited sample), C=Log IC50, D=Hill Slope, x=concentration of inhibitor. EPX Bromination Assay
# Sequence of myeloperoxidase (MPO) (P05164 49-745): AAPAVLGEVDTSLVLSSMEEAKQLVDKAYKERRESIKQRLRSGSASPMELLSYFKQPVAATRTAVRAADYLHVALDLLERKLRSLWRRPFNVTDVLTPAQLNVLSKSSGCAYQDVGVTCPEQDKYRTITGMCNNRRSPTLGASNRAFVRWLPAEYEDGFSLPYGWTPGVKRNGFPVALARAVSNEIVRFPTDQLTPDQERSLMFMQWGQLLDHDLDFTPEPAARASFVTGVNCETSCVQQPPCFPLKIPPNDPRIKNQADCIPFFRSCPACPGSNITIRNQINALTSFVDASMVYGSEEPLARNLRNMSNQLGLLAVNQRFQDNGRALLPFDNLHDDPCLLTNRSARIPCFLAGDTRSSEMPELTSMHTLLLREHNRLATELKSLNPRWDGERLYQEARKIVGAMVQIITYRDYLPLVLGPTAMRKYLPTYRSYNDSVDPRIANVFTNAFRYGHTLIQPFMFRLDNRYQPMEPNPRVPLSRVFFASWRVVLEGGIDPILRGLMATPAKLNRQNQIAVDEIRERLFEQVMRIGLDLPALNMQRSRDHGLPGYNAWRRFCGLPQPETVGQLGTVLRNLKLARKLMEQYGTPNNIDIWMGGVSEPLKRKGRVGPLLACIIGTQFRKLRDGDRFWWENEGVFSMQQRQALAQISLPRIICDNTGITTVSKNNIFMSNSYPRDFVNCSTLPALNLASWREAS
row,SMILES,IC50 [nM]
1,"Nc1cc(SCc2nn(-c3ccccc3)nc2C(F)F)c2nn[nH]c2n1 [Example 153, 7-(((5-(difluoromethyl)-2-phenyl-2H-1,2,3-triazol-4-yl)methyl)thio)-3H-[1,2,3]triazolo [4,5-b]pyridin-5-amine]",60 to 200
2,"Nc1cc(SCc2cn(-c3cnccn3)nc2C(F)F)c2nn[nH]c2n1 [Example 152, 7-(((3-(difluoromethyl)-1-(pyrazin-2-yl)-1H-pyrazol-4-yl)methyl)thio)-3H-[1,2,3]triazolo [4,5-b]pyridin-5-amine]",200 to 1000

# Same assay, conditions: MPO chlorination assay, ranges given; read-out: MPO chlorination assay IC50
row,IC50 [nM],SMILES
1,200 to 1000,"Cn1ncc(CSc2nc(N)nc3[nH]nnc23)c1C(F)(F)F [Example 163, 7-(((1-methyl-5-(trifluoromethyl)-1H-pyrazol-4-yl)methyl)thio)-3H-[1,2,3]triazolo[4,5-d] pyrimidin-5-amine]"
2,60 to 200,"CC(Sc1cc(N)nc2[nH]nnc12)c1cccnc1 (stereo not drawn) [Example 107, 7-((1-(pyridin-3-yl)ethyl)thio)-3H-[1,2,3]triazolo[4,5-b]pyridin-5-amine]"
3,60 to 200,"Cn1nc(C2CC2)c(F)c1CSc1cc(N)nc2[nH]nnc12 [Example 16, 7-(((3-Cyclopropyl-4-fluoro-1-methyl-1H-pyrazol-5-yl)methyl)thio)-3H-[1,2,3]triazolo[4,5-b]pyridin-5-amine]"
4,60 to 200,"Nc1cc(SCc2cc(OC(F)(F)F)ccc2F)c2nn[nH]c2n1 [Example 49, 7-((2-fluoro-5-(trifluoromethoxy)benzyl)thio)-3H-[1,2,3]triazolo[4,5-b]pyridin-5-amine]"
5,200 to 1000,"Cc1cc(CSc2cc(N)nc3[nH]nnc23)n(C)n1 [Example 58, 7-(((1,3-dimethyl-1H-pyrazol-5-yl)methyl)thio)-3H-[1,2,3]triazolo[4,5-b] pyridin-5-amine]"
6,60 to 200,"Cc1nn(-c2ccccc2)c(Cl)c1CSc1nc(N)nc2[nH]nnc12 [Example 156, 7-(((5-chloro-3-methyl-1-phenyl-1H-pyrazol-4-yl)methyl)thio)-3H-[1,2,3] triazolo[4,5-b]pyrimidin-5-amine]"
7,200 to 1000,"Cc1nn(Cc2ccccc2)c(Cl)c1CSc1nc(N)nc2[nH]nnc12 [Example 159, 7-(((1-benzyl-5-chloro-3-methyl-1H-pyrazol-4-yl)methyl)thio)-3H-[1,2,3] triazolo[4,5-d]pyrimidin-5-amine]"
8,60 to 200,"Nc1nc(SCc2ccccc2)c2nn[nH]c2n1 [Example 155, 7-(benzylthio)-3H-[1,2,3] triazolo[4,5-d]pyrimidin-5-amine]"
9,200 to 1000,"Cc1nn(-c2cccc(F)c2)nc1CSc1cc(N)nc2[nH]nnc12 [Example 67, 7-(((2-(3-fluorophenyl)-5-methyl-2H-1,2,3-triazol-4-yl)methyl)thio)-3H-[1,2,3] triazolo[4,5-b]pyridin-5-amine]"
10,60 to 200,"Nc1cc(SCc2cc(-c3ccccc3)on2)c2nn[nH]c2n1 [Example 101, 7-(((5-phenylisoxazol-3-yl)methyl)thio)-3H-[1,2,3] triazolo[4,5-b]pyridin-5-amine]"
11,60 to 200,"N#Cc1ccc(-n2cccn2)c(CSc2cc(N)nc3[nH]nnc23)c1 [Example 132, 3-(((5-amino-3H-[1,2,3]triazolo[4,5-b]pyridin-7-yl)thio)methyl)-4-(1H-pyrazol-1-yl) benzonitrile]"
12,60 to 200,"COC(=O)C(Sc1cc(N)nc2[nH]nnc12)c1ccccc1Cl (stereo not drawn) [Example 50, methyl 2-((5-amino-3H-[1,2,3]triazolo[4,5-b]pyridin-7-yl)thio)-2-(2-chlorophenyl)acetate]"
13,200 to 1000,"NC(=O)c1ccc(CSc2cc(N)nc3[nH]nnc23)c(F)c1 [Example 120, 4-(((5-amino-3H-[1,2,3]triazolo[4,5-b]pyridin-7-yl)thio)methyl)-3-fluorobenzamide]"
14,60 to 200,"Nc1cc(SCc2nn(Cc3ccccc3)c3ccccc23)c2nn[nH]c2n1 [Example 62, 7-(((1-benzyl-1H-indazol-3-yl)methyl)thio)-3H-[1,2,3] triazolo[4,5-b]pyridin-5-amine]"
15,200 to 1000,"Nc1cc(SC(c2ccccc2)C(F)(F)F)c2nn[nH]c2n1 (stereo not drawn) [Example 38, 7-((2,2,2-trifluoro-1-phenylethyl)thio)-3H-[1,2,3] triazolo[4,5-b]pyridin-5-amine]"
16,60 to 200,"Nc1cc(SCc2cccc3c2OC(F)(F)O3)c2nn[nH]c2n1 [Example 105, 7-(((2,2-difluorobenzo[d] [1,3]dioxol-4-yl)methyl)thio)-3H-[1,2,3]triazolo[4,5-b]pyridin-5-amine]"
17,200 to 1000,"Cc1oc(-c2c(F)cc(F)cc2F)nc1CSc1cc(N)nc2[nH]nnc12 [Example 37, 7-(((5-methyl-2-(2,4,6-trifluorophenyl)oxazol-4-yl)methyl)thio)-3H-[1,2,3] triazolo[4,5-b]pyridin-5-amine]"
18,200 to 1000,"N#Cc1ccc(C2CC2)c(CSc2nc(N)nc3[nH]nnc23)c1 [Example 161, 3-(((5-amino-3H-[1,2,3]triazolo[4,5-d]pyrimidin-7-yl)thio)methyl)-4-cyclopropylbenzonitrile]"
19,60 to 200,"N#Cc1ccc(Cl)cc1CSc1cc(N)nc2[nH]nnc12 [Example 73, 2-(((5-amino-3H-[1,2,3]triazolo[4,5-b]pyridin-7-yl)thio)methyl)-4-chlorobenzonitrile]"
20,60 to 200,"N#Cc1cccc(F)c1CSc1nc(N)nc2[nH]nnc12 [Example 154, 2-(((5-Amino-3H-[1,2,3]triazolo[4,5-d]pyrimidin-7-yl)thio)methyl)-3-fluorobenzonitrile]"

row,SMILES,IC50 [nM]
1,"Nc1cc(SCc2cn(-c3ccccc3)nc2C2CC2)c2nn[nH]c2n1 [Example 134, 7-(((3-Cyclopropyl-1-phenyl-1H-pyrazol-4-yl)methyl)thio)-3H-[1,2,3]triazolo[4,5-b]pyridin-5-amine]",≤ 60
2,"Nc1cc(SCc2ccccc2OC(F)(F)F)c2nn[nH]c2n1 [Example 29, 7-((2-(trifluoromethoxy)benzyl)thio)-3H-[1,2,3] triazolo[4,5-b]pyridin-5-amine]",≤ 60
3,"N#Cc1ccc(CSc2cc(N)nc3[nH]nnc23)c(C2CC2)c1 [Example 133, 4-(((5-amino-3H-[1,2,3]triazolo[4,5-b]pyridin-7-yl)thio)methyl)-3-cyclopropylbenzonitrile]",≤ 60
4,"Cc1nn(C)c(Cl)c1CSc1cc(N)nc2[nH]nnc12 [Example 60, 7-(((5-chloro-1,3-dimethyl-1H-pyrazol-4-yl)methyl)thio)-3H-[1,2,3]triazolo[4,5-b]pyridin-5-amine]",≤ 60
5,"N#Cc1cccc(F)c1CSc1cc(N)nc2[nH]nnc12 [Example 68, 2-(((5-amino-3H-[1,2,3]triazolo[4,5-b]pyridin-7-yl)thio)methyl)-3-fluorobenzonitrile]",≤ 60
6,"Nc1cc(SCc2ccccc2Cl)c2nn[nH]c2n1 [Example 4, 7-((2-chlorobenzyl)thio)-3H-[1,2,3]triazolo [4,5-b]pyridin-5-amine]",≤ 60
7,"Nc1cc(SCc2cccc(CN3CCCC3)c2)c2nn[nH]c2n1 [Example 15, 7-((3-(Pyrrolidin-1-ylmethyl)benzyl)thio)-3H-[1,2,3]triazolo[4,5-b]pyridin-5-amine]",≤ 60
8,"Nc1cc(SCc2cccc3cccnc23)c2nn[nH]c2n1 [Example 125, 7-((quinolin-8-ylmethyl)thio)-3H-[1,2,3] triazolo[4,5-b]pyridin-5-amine]",≤ 60
